According to US5994334A, “Androgen synthesis inhibitors” (priority 1997, dated 1999):

Legend:
17α-hydroxylase = conditions: [3H]-progesterone substrate; read-out: IC50 17α-hydroxylase (Potter et al.); cited from earlier work
5α-reductase = conditions: cited from earlier work
C17,20-lyase = conditions: [3H]-progesterone substrate; read-out: IC50 C17,20-lyase (Potter et al.); cited from earlier work
[1] = tested on: breast cancers in postmenopausal patients; conditions: human, in vivo; cited from earlier work
[2] = target: T1, Human Prostatic 5α-Reductase (Homo sapiens, UniProt P31213); assay: Inhibition of human prostatic 5α-reductase (prostatic microsomes, [3H]testosterone); conditions: for IC50: IC50 5α-reductase; for inhibition at 0.01 µM: read-out: % Inhibition of 5α-reductase, [I] 10 nM; for inhibition at 0.1 µM: read-out: % Inhibition of 5α-reductase, [I] 100 nM
T1 sequence (P31213 1-254): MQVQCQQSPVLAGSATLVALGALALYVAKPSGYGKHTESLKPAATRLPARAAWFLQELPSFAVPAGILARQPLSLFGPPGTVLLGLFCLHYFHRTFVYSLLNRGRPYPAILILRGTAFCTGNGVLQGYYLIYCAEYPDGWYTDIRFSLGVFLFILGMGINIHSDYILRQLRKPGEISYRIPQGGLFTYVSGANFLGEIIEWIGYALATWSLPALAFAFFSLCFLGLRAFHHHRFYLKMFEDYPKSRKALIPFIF
Protocol: (§2) The 5α-reductase assay is performed by incubating human prostatic microsomes (approx. 0.6 mg protein in 0.5 ml phosphate buffer) with [7-^3 H]testosterone (10 mM. 6×10^5 dpm) with a NADPH generating system (NADP 0.65 mM; glucose-6-phosphate 7.1 mM; glucose-6-phosphate dehydrogenase 2.5 IU in 100 μl phosphate buffer) and candidate inhibitors at concentrations of 10 nM and 100 nM under oxygen for 30 min at 37° C. […] The steroids are extracted with ether and separated by chromatography on TLC (chloroform:ether 80:20). […] The steroids are scraped from the plate and radioactivity measured.

rat C17,20-lyase = rat C17,20-lyase (Rattus norvegicus, UniProt P11715); assay: Inhibition kinetics of rat C17,20-lyase, 17α-hydroxyprogesterone substrate; type: biochemical; conditions: 17α-hydroxyprogesterone as substrate; vs. Km 76 nM
rat C17,20-lyase, sequence (P11715 whole entry): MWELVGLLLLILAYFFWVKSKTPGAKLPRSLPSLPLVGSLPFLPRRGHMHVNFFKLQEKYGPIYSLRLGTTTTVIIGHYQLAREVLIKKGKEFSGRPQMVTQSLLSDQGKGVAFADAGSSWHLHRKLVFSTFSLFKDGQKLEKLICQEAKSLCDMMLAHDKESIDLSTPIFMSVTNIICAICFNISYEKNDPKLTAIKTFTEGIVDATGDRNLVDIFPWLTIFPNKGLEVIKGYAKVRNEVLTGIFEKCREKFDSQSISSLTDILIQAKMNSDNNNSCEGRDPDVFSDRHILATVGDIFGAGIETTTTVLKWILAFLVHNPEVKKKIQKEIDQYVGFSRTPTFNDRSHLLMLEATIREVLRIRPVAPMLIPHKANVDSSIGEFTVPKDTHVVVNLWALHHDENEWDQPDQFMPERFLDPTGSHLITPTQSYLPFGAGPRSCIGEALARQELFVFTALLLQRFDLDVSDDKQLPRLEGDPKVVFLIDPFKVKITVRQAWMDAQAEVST
Source text: (§1) Studies in normal male rats have been carried out with 4-pregnen-3-one-20β-carboxaldehyde (I-16) (Li et al., 1992) and with its 20-carboxaldoxime (I-23)(Li et al., 1995).

[3] = tested on: mutant AR which is expressed in LNCaP cells; assay: Androgen receptor-mediated gene transcription, mutant AR of LNCaP cells (luciferase, CV1 cells); type: cell-based, human
[4] = target: T1, Human Prostatic 5α-Reductase; assay: biochemical
Protocol: as §2

[5] = tested on: LNCaP human prostatic cancer cell line; assay: Androgen-dependent growth of LNCaP cells; conditions: for reversal of DHT-stimulated LNCaP growth (in words): 0.03 nM DHT; for stimulation of LNCaP cell proliferation (in words): hydroxyflutamide 0.3-1 μM
Protocol: The ability of various inhibitors to reverse the stimulatory effect of testosterone on the growth of the LNCaP human prostatic cancer cell line was tested by comparing cell number in wells treated for 9 days with either drug vehicle only (control), 0.1 nM testosterone only, or 0.1 nM testosterone with inhibitor at 0.3, 1, 2.5, or 5 μM.

rat 17α-hydroxylase = rat 17α-hydroxylase (Rattus norvegicus, UniProt P11715); assay: Inhibition kinetics of rat 17α-hydroxylase, progesterone substrate; type: biochemical
rat 17α-hydroxylase, sequence (P11715 whole entry): as above
Source text: as §1

normal male rats = assay: In vivo studies in normal male rats: hormone levels; parameters: species or system rat
Source text: as §1

[6] = tested on: rat 17α-hydroxylase/C17,20-lyase; assay: Inhibition of rat 17α-hydroxylase/C17,20-lyase; type: biochemical
Source text: as §1

[7] = target: human androgen receptor (AR) (Homo sapiens, UniProt P10275); assay: Androgen receptor-mediated gene transcription, wild-type AR (luciferase, CV1 cells); type: cell-based; conditions: against DHT stimulation
human androgen receptor (AR), sequence (P10275 whole entry): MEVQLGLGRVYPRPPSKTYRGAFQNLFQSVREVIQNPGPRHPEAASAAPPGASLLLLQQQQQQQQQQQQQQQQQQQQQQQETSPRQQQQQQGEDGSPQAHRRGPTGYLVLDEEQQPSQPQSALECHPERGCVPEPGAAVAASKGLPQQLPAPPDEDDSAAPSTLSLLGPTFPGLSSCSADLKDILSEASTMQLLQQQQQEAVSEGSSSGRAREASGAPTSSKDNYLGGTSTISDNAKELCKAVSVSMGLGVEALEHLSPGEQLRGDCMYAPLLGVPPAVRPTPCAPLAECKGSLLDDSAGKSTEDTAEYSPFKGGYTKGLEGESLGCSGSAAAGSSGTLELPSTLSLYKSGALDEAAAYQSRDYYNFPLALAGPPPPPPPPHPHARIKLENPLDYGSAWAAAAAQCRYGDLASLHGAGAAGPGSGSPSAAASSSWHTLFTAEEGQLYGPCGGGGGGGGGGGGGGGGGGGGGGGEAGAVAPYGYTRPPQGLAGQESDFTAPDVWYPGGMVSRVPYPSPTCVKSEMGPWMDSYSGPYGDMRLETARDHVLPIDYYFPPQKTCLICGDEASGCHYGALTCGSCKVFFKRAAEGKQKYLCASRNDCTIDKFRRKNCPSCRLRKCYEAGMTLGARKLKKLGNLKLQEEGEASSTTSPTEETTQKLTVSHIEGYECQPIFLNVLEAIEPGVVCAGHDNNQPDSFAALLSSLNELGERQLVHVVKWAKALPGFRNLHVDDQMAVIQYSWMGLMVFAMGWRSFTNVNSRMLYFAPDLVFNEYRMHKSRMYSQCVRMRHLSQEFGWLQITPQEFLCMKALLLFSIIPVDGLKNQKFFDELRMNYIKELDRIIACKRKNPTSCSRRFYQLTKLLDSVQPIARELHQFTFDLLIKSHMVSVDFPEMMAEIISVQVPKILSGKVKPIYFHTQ

TRPM-2 gene = conditions: vs castration; cited from earlier work
BPH patients = conditions: cited from earlier work; for serum testosterone levels (in words): human, in vivo
[8] = tested on: 5α-reductase Type I and Type II isoforms; conditions: cited from earlier work
[9] = tested on: 17α-hydroxylase/C17,20-lyase; conditions: cited from earlier work
[10] = tested on: cytochrome P450 steroidogenic enzymes; conditions: human, in vivo; cited from earlier work
dogs = conditions: vs finasteride; cited from earlier work
[11] = in vivo; cited from earlier work
[12] = tested on: human prostatic tissue (BPH or prostate cancer); assay: Prostate tissue in histoculture, DNA synthesis ([3H]-thymidine uptake); conditions: inhibitor 1 μM; testosterone 1 μM; FIG. 1
Protocol: We recently developed a histoculture method to evaluate the growth inhibiting properties of the compounds on human prostatic tissue. […] The tissue samples were then incubated for 3 days in fresh medium/treatment containing 2 μCi/ml [^3 H]-thymidine. Tissue was then digested and DNA extracted. For each sample, [^3 H]-thymidine uptake was normalized to DNA content. […] This finding is consistent with the compound acting as an antiandrogen. None of the compounds produced an independent effect on DNA synthesis in the absence of added androgens.

[13] = tested on: patients with prostatic cancer; conditions: combined with GnRH or orchidectomy vs GnRH agonist or orchidectomy alone; cited from earlier work
mutant androgen receptor = conditions: cited from earlier work
[14] = 50 mg/kg/day sc, 21 days, vs control
[15] = 50 mg/kg/day sc, 21 days, vs vehicle

Question: For C[C@]12CC[C@H](O)CC1=CC[C@@H]1[C@@H]2CC[C@]2(C)C(c3cccnc3)=CC[C@@H]12 [CB7598, 17-(3'-pyridyl)androsta-5,16-diene-3-ol], which IC50 (17α-hydroxylase) is on record?
Answer: Its IC50 is 4 nM.

Question: And the “inhibition of 5α-reductase, literature (in words)” value (5α-reductase)?
Answer: Its value is “no activity”.

Question: What about the IC50 (C17,20-lyase) of the same compound?
Answer: The IC50 was 2.9 nM.

Question: Which “side effects (in words)” value [1] does the source give for C[C@]12CCC(=O)C(O)=C1CC[C@@H]1[C@@H]2CC[C@]2(C)C(=O)CC[C@@H]12 [Compound 4-OHA, 4-hydroxyandrostene-3,17-dione] here?
Answer: Its value is “without significant side effects”.

Question: Which results are given for C[C@H](C=NO)[C@H]1CC[C@H]2[C@@H]3CCC4=CC(=O)CC[C@]4(C)[C@H]3CC[C@]12C [Compound I-23, 3-oxo-4-pregnene-20β-carboxaldehyde oxime]?
Answer: IC50 ([2]; Table 2): 106 nM; inhibition of 5α-reductase (in words) ([2]; NI = no inhibition): potent inhibition of 5α-reductase; inhibition at 0.01 µM [2]: 14.7%; inhibition at 0.1 µM [2]: 85.8%; Ki (rat C17,20-lyase): 18 nM; agonism/antagonism at mutant AR of LNCaP cells (in words) [3]: agonists; Ki [4]: 1.4 nM; reversal of DHT-stimulated LNCaP growth (in words) [5]: stimulation of growth above the level produced by DHT; stimulation of LNCaP cell proliferation (in words) ([5]; 0.1 nM testosterone): stimulated cell proliferation; Ki (rat 17α-hydroxylase): 74 nM; decrease of prostatic DHT (normal male rats; [14]): 44%; decrease of prostatic testosterone (normal male rats; [14]): 60%; serum LH concentration (in words) (normal male rats; [14]): unchanged; reduction of serum testosterone (normal male rats; [15]): 65%; reduction of testicular testosterone (normal male rats; [15]): 59%; reduction of testosterone and DHT levels in serum, testicular and prostatic tissues (in words) (normal male rats; rat): significantly reducing testosterone and DHT levels; inhibition of rat 17α-hydroxylase/C17,20-lyase (in words) [6]: inhibit rat 17α-hydroxylase/C17,20 -lyase; antagonism of wild-type AR (in words) [7]: dose-dependent antagonism

Question: Which IC50 [2] does the source give for CC(C)(C)NC(=O)[C@H]1CC[C@H]2[C@@H]3CC[C@H]4NC(=O)C=C[C@]4(C)[C@H]3CC[C@]12C [Finasteride, reference compound] here?
Answer: The IC50 was 14 nM.

Question: What about the IC50 ([2]; Table 2) of the same compound?
Answer: Its IC50 is 14 nM.

Question: And the IC50 ([2]; Table 3, NI = no inhibition)?
Answer: Its IC50 is 14.4 nM.

Question: And the inhibition at 0.01 µM [2]?
Answer: Its inhibition at 0.01 µM is 41.2%.

Question: And the inhibition at 0.1 µM [2]?
Answer: Its inhibition at 0.1 µM is 88.3%.

Question: What about the inhibition at 0.4 µM ([2]; read-out: % Inhibition of 5α-reductase, [I] 400 nM) of the same compound?
Answer: Its inhibition at 0.4 µM is 93%.

Question: And the “TRPM-2 expression (in words)” value (TRPM-2 gene)?
Answer: The value was “not by finasteride treatment”.

Question: What about the “reversal of DHT-stimulated LNCaP growth (in words)” value [5] of the same compound?
Answer: Its value is “dose-dependent reversal”.

Question: And the “reversal of testosterone-stimulated LNCaP growth at 5 μM (in words)” value ([5]; 0.1 nM testosterone, inhibitor 5 μM)?
Answer: Its value is “almost completely reversed”.

Question: What about the “reversal of testosterone-stimulated LNCaP growth (in words)” value ([5]; 0.1 nM testosterone, inhibitor 0.3-5 μM, 9 days) of the same compound?
Answer: Its value is “dose-dependent reversal”.

Question: And the IC50 ([5]; Homo sapiens, LNCaP, 216 h, read-out: concentration reducing the stimulatory effect of testosterone by 50%)?
Answer: Its IC50 is ≤ 1000 nM.

Question: What about the “serum testosterone levels (in words)” value (BPH patients) of the same compound?
Answer: The value was “increase serum testosterone levels”.

Question: And the “gynecomastia in long-term treatment (in words)” value (BPH patients; long-term treatment)?
Answer: The value was “some patients developed gynecomastia which led to breast cancer in a few cases”.

Question: What about the “reduction of serum DHT” value (BPH patients; patients) of the same compound?
Answer: The value was 65-80%.

Question: And the “potency at 5α-reductase Type II vs Type I (in words)” value [8]?
Answer: Its value is “more potent inhibitor of the Type II than of the Type I isoform”.

Question: For CC(=O)N1CCN(c2ccc(OCC3COC(Cn4ccnc4)(c4ccc(Cl)cc4Cl)O3)cc2)CC1 (stereo not drawn) [Ketoconazole], which “inhibition of 17α-hydroxylase/C17,20-lyase, literature (in words)” value [9] is on record?
Answer: Its value is “not very potent”.

Question: What about the “side-effects (in words)” value [10] of the same compound?
Answer: Its value is “inhibition of several other cytochrome P450 steroidogenic enzymes, and reduction of cortisol production”.

Question: And the IC50 (C17,20-lyase)?
Answer: Its IC50 is 26 nM.

Question: Which “serum testosterone levels (in words)” value (BPH patients) does the source give for C[C@]12C=CC(=O)N[C@@H]1CC[C@@H]1[C@@H]2CC[C@]2(C)[C@@H](C(=O)c3ccccc3)CC[C@@H]12 [MK-434] here?
Answer: Its value is “increase serum testosterone levels”.

Question: What about the “reduction of prostatic DHT in dogs (in words)” value (dogs) of the same compound?
Answer: Its value is “reduces prostatic DHT levels in dogs more effectively than finasteride”.

Question: Which “metabolism and oral activity (in words)” value [11] does the source give for CC(=O)[C@H]1CC[C@H]2[C@@H]3CCC4=CC(=O)CC[C@]4(C)[C@H]3CC[C@]12C [Progesterone] here?
Answer: The value was “rapid metabolism in the body and lack of oral activity”.

Question: What about the “inhibition of 5α-reductase, literature (in words)” value (5α-reductase) of the same compound?
Answer: Its value is “potent 5α-reductase inhibitor”.

Question: What does the source list for CC(C)C(=O)Nc1ccc([N+](=O)[O-])c(C(F)(F)F)c1 [flutamide, reference compound]?
Answer: reversal of testosterone-stimulated DNA synthesis (in words), 1 μM [12]: almost complete reversal; progression-free survival (in words) [13]: increased progression-free survival time

Question: With CC(C)(O)C(=O)Nc1ccc([N+](=O)[O-])c(C(F)(F)F)c1 [hydroxyflutamide, reference compound] as the compound, how does the “effect on mutant AR / prostatic cell growth (in words)” value (mutant androgen receptor) read?
Answer: The value was “agonist activity for the mutant androgen receptor of LNCaP cells”.

Question: What about the “stimulation of LNCaP cell proliferation (in words)” value ([5]; 0.1 nM testosterone) of the same compound?
Answer: Its value is “stimulated cell proliferation”.
